Each block holds one molecule with its values, some of them ahead of it.
Tests used:
Type in all cases: biochemical
[1] = biological target: T1, Gox1615 (Gluconobacter oxydans, UniProt Q5FQJ0); assay: Enzyme kinetics (Lineweaver-Burk plots), Gox1615; conditions: NADPH-dependent reduction
T1 sequence (Q5FQJ0 1-332): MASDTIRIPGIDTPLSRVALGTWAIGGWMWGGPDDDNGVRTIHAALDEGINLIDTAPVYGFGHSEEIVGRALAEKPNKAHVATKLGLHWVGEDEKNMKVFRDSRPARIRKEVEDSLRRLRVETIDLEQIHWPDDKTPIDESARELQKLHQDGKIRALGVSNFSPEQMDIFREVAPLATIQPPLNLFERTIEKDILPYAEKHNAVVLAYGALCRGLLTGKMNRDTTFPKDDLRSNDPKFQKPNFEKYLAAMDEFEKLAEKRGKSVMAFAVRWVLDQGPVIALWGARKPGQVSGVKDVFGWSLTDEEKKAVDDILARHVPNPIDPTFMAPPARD
Procedure: (§1) Determination of pH and temperature optima and enzyme kinetics: The optimum pH for enzyme activities was determined by a modified method of Salusjärvi, T. et al., Appl. Microbiol. Biotechnol. 65:306-314 (2004) using the following buffer system (50 mM final concentration each): sodium acetate pH 4.5 - 6.5, potassium phosphate pH 6.5 - 8.0, Tris-HCl pH 8.0 - 10. Temperature optima for the biocatalysts were determined under standard reaction conditions at temperatures ranging from 20 - 80 °C. The Michaelis constant (Km) for the proteins was determined from purified enzyme by Lineweaver-Burk plots. Assays were performed at optimum pH for each enzyme and at 30 °C using the top substrate and a targeted substrate. The Km for each substrate was calculated using concentrations of 0.0025 to 10 mM, and the Km NAD(P)H and NAD(P) was calculated using concentrations of 0.01 to 0.5 mM
(§2) The Michaelis constants were determined from purified enzyme by Lineweaver-Burk plots. The Km and Vmax values for the substrates were calculated using concentrations of 0.025 to 10 mM, The optimal pH values and temperatures for enzyme activities are also shown in Tab. 11. Tab. 11: Summary of kinetic parameters

[2] = biological target: T1, Gox1615; assay: Regioselectivity of bioconversion, product determined by NMR, Gox1615; conditions: bioconversion with Gox1122 cofactor regeneration, NMR analysis
Text: Cofactor regeneration: A prerequisite for the production of α-hydroxycarbonyl compounds is the regeneration of the expensive coenzymes and the stability of the protein catalysts. By coupling two coenzyme-dependent enzyme reactions, NADPH can be continuously regenerated. […] For this purpose, we used a combined enzymatic reaction between the NADPH-dependent oxidoreductases that form α-hydroxycarbonyl compounds and the aldehyde dehydrogenase GOX1122 (see Schweiger, P. et al., J. Mol. Microbiol. Biotechnol. 13:147-155 (2007)) that produces the reduced cofactor in the course of acetaldehyde oxidation. […] The biotransformation was performed in a batch process (total volume 2.5 ml 40 mM potassium phosphate buffer pH 7). 30 µg of purified Gox1122 and of NADPH-dependent oxidoreductases and 50 µM NADPH were added. The substrate concentration in the beginning was 20 mM 2,3-pentanedione and 20 mM acetaldehyde. Fresh substrates were added every 60 min (20 mM each).
NMR: The 2.5 ml bioconversion was extracted with two times equal volume of d-chloroform. ^1H and ^13C NMR spectra were recorded on a DPX 300 Spectrometer (300 MHz) and referenced to the CDCl3 internal standard. Chemical samples analyzed with Bruker NMR Suite 2.5 software constructed final product structures.
2.7 Regioselectivity of GOX0644 and GOX1615: Tab. […] Tab. 10: Summary of Regioselectivity
The reduced NADPH was oxidized in the reduction of phenylglyoxal to 2-hydroxy-2-phenyl-acetaldehyde by protein Gox1615. 5 ml bioconversions for determining regioselectivity were set up with 2 mg of proteins Gox1615 and Gox1122, 40 mM potassium phosphate buffer, pH 7.0, 50 µM NADPH. Substrates (20 mM phenylglyoxal and acetaldehyde) were added every 30 min. The reaction was followed for 3 h to produce quantities between 40-60 mg of product (2-phenyl-2-hydroxyaldehyde).

[3] = biological target: T2, Gox0644 (Gluconobacter oxydans, UniProt Q5FT75); assay: Gox0644 acetaldehyde tolerance test
Text: 3.1. […] By coupling two coenzyme-dependent enzyme reactions, NADPH can be continuously regenerated. […] For this purpose, a combined enzymatic reaction was used between the NADPH-dependent oxidoreductases that form α-hydroxy carbonyl compounds and the aldehyde dehydrogenase GOX1122 that produces the reduced cofactor in the course of acetaldehyde oxidation. […] The products derived from the α-diketone and α-ketoaldehyde substrate reaction were generated according to the cofactor regeneration protocol. […] In both the reactions with phenylglyoxal and 2,3 pentanedione, Gox0644 activity remained similar to the control reaction consisting of a reaction without acetaldehyde (Tab. 12/13). […] In the reaction with 2,3 pentanedione there was a slight decrease of about 20% from the control, however, the activity levels were still very high at 66.8 U/mg. […] Table 12: Gox0644 acetaldehyde tolerance tests with phenylglyoxal

[4] = biological target: T2, Gox0644; assay: Enzyme kinetics (Lineweaver-Burk plots), Gox0644; conditions: NADPH-dependent reduction
Procedure: as §1, §2

Vmax [1]: 6 U/mg protein
SMILES: CCCC(=O)C(C)=O [2,3-hexanedione]

Product (regioselective reduction) [2]: 2-hydroxy-2-phenyl-acetaldehyde
Product (regioselective reduction) ([2]; listed as Phenylglyoxal): 2-hydroxy-2-phenylacetaldehyde
Vmax [4]: 93 U/mg protein
SMILES: O=CC(=O)c1ccccc1 [phenylglyoxal]
Gox0644 activity ([3]; substrate phenylglyoxal, Control (without acetaldehyde)): 38.5 U/mg
Gox0644 activity ([3]; substrate phenylglyoxal, acetaldehyde 10mM): 29.6 U/mg
Gox0644 activity ([3]; substrate phenylglyoxal, acetaldehyde 30mM): 37.1 U/mg
Gox0644 activity ([3]; substrate phenylglyoxal, acetaldehyde 50mM): 39.3 U/mg
Gox0644 activity ([3]; substrate phenylglyoxal, acetaldehyde 100mM): 31.2 U/mg

SMILES: CCC(=O)C(C)=O [2,3-pentanedione]
Product (regioselective reduction) [2]: 2-hdrox-pentane-3-one
activity levels ([3]; Gox0644 with 2,3 pentanedione, high concentration of acetaldehyde): 66.8 U/mg
Gox0644 activity ([3]; substrate 2,3-pentanedione, Control (without acetaldehyde)): 87.6 U/mg
Gox0644 activity ([3]; substrate 2,3-pentanedione, acetaldehyde 10mM): 90.5 U/mg
Gox0644 activity ([3]; substrate 2,3-pentanedione, acetaldehyde 30mM): 79.3 U/mg
Gox0644 activity ([3]; substrate 2,3-pentanedione, acetaldehyde 50mM): 66.8 U/mg
Vmax [4]: 79 U/mg protein

SMILES: CC(=O)C=O [methylglyoxal]
Vmax [1]: 22 U/mg protein

From EP2119770B1, “Production of alpha-oxyfunctionalized carbonyl compounds” (priority 2008, dated 2009)
